Some test systems named below: DMS-114; LOX IMVI; NCI-H226; SNB-75; U-251; HCT-15; HCC 2998; NCI-H522; EKVX; HOP-62; CAKI-1; MOLT-4; UACC-257; Malme-3M; SK-MEL-2; M14; HOP-92; RPMI-8226.
Holding throughout (assay): NCI tumour cell line growth inhibition, 48 h

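Where inhibition never reached the appropriate level, the endpoint shown equals the highest concentration tested. Otherwise, values were interpolated linearly from a five-concentration, 48-hour dose response in 96-well plates. GI50 = concentration required for 50% inhibition of growth.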 Activity calls are given as the source filed them. No stated cut-off is given here; in the data, active = GI50 up to about 1.1 µM and inactive = higher.

Regarding `Cc1ccnc(NS(=O)(=O)c2ccc(NC3=CC(=O)C(=O)c4ccccc43)cc2)n1`, the GI50 was > 100 µM (inactive) in the experiment with DMS-114; > 100 µM (inactive) in the experiment with LOX IMVI; > 100 µM (inactive) in the experiment with NCI-H226; > 100 µM (inactive) with SNB-75; > 100 µM (inactive) in the experiment on U-251; over 100 µM in the experiment with HCT-15. Also, the GI50 with HCC 2998, in the experiment on NCI-H522, in the experiment on EKVX, with HOP-62, with CAKI-1 and in the experiment with MOLT-4 was > 100 µM (inactive) each time. The GI50 with UACC-257, in the experiment on Malme-3M, with SK-MEL-2 and in the experiment with M14 was > 100 µM (inactive) each time.
On to `O=c1c(O)cccn1C1OC(CO)C(O)C1O` (stereo unspecified), for which the GI50 with DMS-114, in the experiment with LOX IMVI, in the experiment with NCI-H226, in the experiment with SNB-75, in the experiment on U-251 and in the experiment on HOP-92 was > 100 µM (inactive) each time. Besides, the GI50 was over 100 µM in the experiment on HCT-15; > 100 µM (inactive) in the experiment on HCC 2998; > 100 µM (inactive) in the experiment on NCI-H522; > 100 µM (inactive) in the experiment with EKVX; > 100 µM (inactive) with CAKI-1; > 100 µM (inactive) with UACC-257. Moreover, the GI50 in the experiment with Malme-3M, in the experiment with RPMI-8226, with SK-MEL-2 and in the experiment on M14 was > 100 µM (inactive) each time.
Consider `CCC(C)C(N)C(=O)NC(CC(N)=O)C(=O)NC(CC(C)C)C(=O)NC(CCCCN)C(=O)NC(C)C(=O)NC(CC(C)C)C(=O)NC(C)C(=O)NC(C)C(=O)NC(CC(C)C)C(=O)NC(C)C(=O)NC(CCCCN)C(=O)NC(CCCCN)C(=O)NC(C(=O)NC(CC(C)C)C(N)=O)C(C)CC` (stereo unspecified), for which the GI50 was 14.1 µM (inactive) with DMS-114; 18.3 µM (inactive) in the experiment on LOX IMVI; 14.5 µM (inactive) in the experiment on NCI-H226; 6.56 µM (inactive) with SNB-75; 16.4 µM (inactive) in the experiment with U-251; 1.14 µM (inactive) in the experiment with HOP-92. Besides, the GI50 in the experiment with HCT-15 is 16.6 µM; in the experiment on HCC 2998, > 42.2 µM (inactive); in the experiment with NCI-H522, 16.7 µM (inactive); in the experiment with EKVX it was 8.05 µM (inactive); with HOP-62, 2.55 µM (inactive); in the experiment with CAKI-1, 8.3 µM (inactive). Also, the GI50 is 14.9 µM (inactive) in the experiment on MOLT-4; 14.2 µM (inactive) with UACC-257; 5.98 µM (inactive) with Malme-3M; 19.4 µM (inactive) with SK-MEL-2; 2.48 µM (inactive) with M14.
`CC(=O)Oc1cc(C)c2c(c1OC(C)=O)CC1(O2)[C@@H](C)CCC2[C@@]3(C)CC[C@H](OC(C)=O)C(C)(C)C3CC[C@]21C` (stereo partly specified): the GI50 in the experiment on DMS-114 is 2.29 µM (inactive); in the experiment with LOX IMVI, 4.24 µM (inactive); in the experiment with NCI-H226, 11.4 µM (inactive); in the experiment on SNB-75 it was 3.57 µM (inactive); in the experiment with U-251, 3.33 µM (inactive); with HOP-92, 3.14 µM (inactive). Further, the GI50 is 3.53 µM in the experiment with HCT-15; 5.42 µM (inactive) with HCC 2998; 3.69 µM (inactive) in the experiment with EKVX; 2.65 µM (inactive) in the experiment with HOP-62; 2.2 µM (inactive) with CAKI-1; 4.57 µM (inactive) in the experiment on MOLT-4. Also, the GI50 in the experiment with UACC-257 was 5.97 µM (inactive); in the experiment with Malme-3M it was 2.86 µM (inactive); in the experiment on RPMI-8226, 3.83 µM (inactive); in the experiment with M14 it was 6.08 µM (inactive).
In the case of `COc1ccc(NC(=O)C(=O)C2NC(=S)NC2=O)c(OC)c1` (stereo unspecified), the GI50 in the experiment on DMS-114, in the experiment on LOX IMVI, with NCI-H226, with SNB-75, with U-251 and in the experiment with HOP-92 was > 100 µM (inactive) throughout. In addition, the GI50 in the experiment on HCT-15 was over 100 µM; with HCC 2998 it was > 100 µM (inactive); in the experiment with EKVX, > 100 µM (inactive); with HOP-62 it was > 100 µM (inactive); in the experiment on MOLT-4, > 100 µM (inactive); in the experiment on UACC-257 it was > 100 µM (inactive). The GI50 in the experiment on Malme-3M, in the experiment on RPMI-8226, with SK-MEL-2 and in the experiment on M14 was > 100 µM (inactive) in each case.
On to `O=[N+]([O-])c1ccc(OCCNc2cccc3ccccc23)cc1`, for which the GI50 in the experiment on DMS-114 was 52.8 µM (inactive); with NCI-H226, > 100 µM (inactive); with SNB-75 it was 89.7 µM (inactive); in the experiment on U-251 it was 94.6 µM (inactive); in the experiment with HOP-92 it was 94.2 µM (inactive); in the experiment on HCT-15 it was 9.73 µM. Moreover, the GI50 with HCC 2998 was 64.6 µM (inactive); in the experiment with NCI-H522, > 100 µM (inactive); with EKVX, > 100 µM (inactive); with HOP-62 it was > 100 µM (inactive); in the experiment on CAKI-1, > 100 µM (inactive); in the experiment with MOLT-4 it was 20.3 µM (inactive). The GI50 in the experiment on UACC-257 was > 100 µM (inactive); in the experiment with Malme-3M, > 100 µM (inactive); in the experiment with RPMI-8226, 24.7 µM (inactive); in the experiment with SK-MEL-2, > 100 µM (inactive); in the experiment with M14, > 100 µM (inactive).
In the case of `CN(C)C(=S)/N=c1\ss/c(=N/c2ccccc2)n1C`, the GI50 was 77.1 µM (inactive) with DMS-114; > 100 µM (inactive) in the experiment on LOX IMVI; > 100 µM (inactive) with NCI-H226; 16.2 µM (inactive) in the experiment on SNB-75; 46.7 µM (inactive) with U-251; 30.5 µM (inactive) in the experiment on HOP-92. Further, the GI50 is over 100 µM with HCT-15; > 100 µM (inactive) in the experiment with HCC 2998; > 100 µM (inactive) in the experiment on EKVX; 48.1 µM (inactive) in the experiment with HOP-62; 36.2 µM (inactive) in the experiment on CAKI-1; > 100 µM (inactive) in the experiment with MOLT-4. Moreover, the GI50 in the experiment on UACC-257 is > 100 µM (inactive); in the experiment with Malme-3M, 40.5 µM (inactive); in the experiment with RPMI-8226, > 100 µM (inactive); in the experiment with SK-MEL-2, > 100 µM (inactive); with M14 it was > 100 µM (inactive).
On to `CCOc1ccc(/C=C(\Cl)c2ccc(OC)cc2)cc1`, for which the GI50 with DMS-114 is 78.7 µM (inactive); in the experiment on NCI-H226 it was > 100 µM (inactive); in the experiment with SNB-75, > 100 µM (inactive); in the experiment on U-251, > 100 µM (inactive); in the experiment with HOP-92 it was > 100 µM (inactive); in the experiment on HCT-15 it was over 100 µM. For the same compound, the GI50 in the experiment with HCC 2998, with NCI-H522, in the experiment with EKVX, in the experiment with HOP-62, in the experiment on MOLT-4 and in the experiment on UACC-257 was > 100 µM (inactive) each time. Also, the GI50 with Malme-3M, in the experiment on RPMI-8226 and in the experiment on M14 was > 100 µM (inactive) each time.
Take `COc1ccc(-c2cc(-c3cc(C)ccc3O)nc(O)n2)cc1`: the GI50 is 81.8 µM (inactive) with DMS-114; > 100 µM (inactive) in the experiment on LOX IMVI; > 100 µM (inactive) in the experiment on NCI-H226; 26.2 µM (inactive) in the experiment with SNB-75; 30.7 µM (inactive) in the experiment on U-251; 32.6 µM (inactive) with HOP-92. In addition, the GI50 was > 100 µM (inactive) with HCC 2998; 24.6 µM (inactive) in the experiment on NCI-H522; 7.11 µM (inactive) in the experiment with EKVX; 22.6 µM (inactive) in the experiment on HOP-62; > 100 µM (inactive) in the experiment on CAKI-1; > 100 µM (inactive) with MOLT-4. Further, the GI50 with UACC-257, with Malme-3M, with RPMI-8226 and in the experiment with M14 was > 100 µM (inactive) throughout.

For the origin of these results see ChEMBL document CHEMBL1201862, “PubChem BioAssay data set” (2004).
